Experimental data as given in US20210221867A1, “Compounds Capable of Binding to Melanocortin 4 Receptor” (Novo Nordisk A/S, priority 2018, published 2021).
Starred links: 1 amine or outer side, 2 acyl side, 3 side chain; linkers in the order of their positions; H or OH if unused. Positions of bridges follow the written chain, without caps; N, C: chain ends. Non-standard residues stand in square brackets, D forms with d. Residues, ends and D or L forms follow the SMILES beside them. dPhe(4-Cl) = N[C@H](Cc1ccc(Cl)cc1)C(=O)O; X1 = NC(N)NCCC[C@@H](N[*:1])C(=O)[*:2]; X3 = NCNCCC[C@@H](N[*:1])C(=O)[*:2]; X2 = NCNCCC[C@H](N[*:1])C(=O)[*:2]; Nle = CCCC[C@H](N)C(=O)O

Columns and labels:
human MC1R [1] = target: T1, human MC1R (Homo sapiens, UniProt Q01726); test: Functional human melanocortin receptor 1 assay (cAMP, HTRF); type: cell-based; conditions: cAMP induction, BHK cells expressing the human MC1 receptor, 30 min, 25° C.
T1 construct: expressed in transfected cells
Procedure: (§1) In order to assess the potency of the compounds on human MC1R and human MC4R cAMP signalling was measured.
(§2) cAMP induction was measured by c-AMPdynamic2 assay, HTRF 62AM4PEC system from CisBio for the human MC1R and human MC4R according to the protocol provided by the vendor. BHK cells expressing the human MC1 or MC4 receptor were generated by stable transfection with expression vectors encoding the cDNA of either MC1R or MC4R. In details; 25 μl compound—or standard solution were added in the respective wells.
(§3) Compound was reconstituted in buffer (DMEM w/o phenol red, 10 mM Hepes, lx Glutamine, 0.1% OV-albumin1, 1 mM IBMX) and serially diluted starting at 2 μM, 10-fold seven times. Dilutions were carried out in the same aforementioned buffer to the desired working concentration ranges (2× higher than the final concentration). 25 μl cell solution was then added and allowed to incubate for 30 min while lightly shaking, at 25° C. […] The provided components for the assay were reconstituted according to the CisBio assay protocol “3.1 supplied reagents and preparation procedure” in MilliQ purification system H2O and diluted 1:20 in lysis buffer. 25 μl cAMP-d2 and 25 μl Cryptate conjugate were added to all wells. Plates were centrifuged at 1500 rpm for 30 sec and incubated for 1 h, lightly shaking, at 25° C. in a hotel stacker. The plates were read on Mithras LB 940 provided by Berthold Technologies
(§4) The data were analysed by non-linear regression analysis of binding curves, using the Windows™ program GraphPad™ Prism (GraphPad Software, USA). EC50 is a measure of the potency of a given compound and is defined herein as the half maximal effective concentration of the compound which induces a response (cAMP induction) halfway between the baseline and maximum response value after a fixed reaction time. Data listed as >, indicate that the highest concentration tested had no effect, where “no effect” is defined as the highest compound concentration with agonistic effect 5% of maximal response of the reference compound NDP-alpha-MSH. […]

human MC1R [2] = target: T1, human MC1R; test: MC1 receptor binding assay (SPA, 125I-NDP-α-MSH); conditions: displacement of 125I-NDP-α-MSH, membranes from BHK cells stably expressing the human MC1 receptor, read-out: MC1R binding IC50
Procedure: In Vitro ^125I-NDP-α-MSH Binding to Recombinant BHK Cells Stably Expressing the Human MC1 Receptor (SPA Binding Assay).
In order to assess the binding affinity of the selected compounds for the human MC1R, competitive binding assays were performed with radiolabelled NDP-alpha MSH (^125I-NDP-α-MSH) and membranes from BHK cells stably expressing the human MC1 receptor.
(§5) The BHK cell membranes are prepared from frozen or fresh cells that are homogenised in ice cold buffer (20 mM HEPES, 5 mM MgCl2, 1 mg/ml Bacitracin, pH 7.1 and one Complete™ Protease Inhibitor Cocktail Tablet per 25 ml (Catalogue number 05 056 489 001 from Roche-applied-science)) and centrifuged at 25000 g at 4° C. for 10 minutes. The supernatant is discarded, and the pellets are re-suspended in the buffer, and then homogenised and centrifuged two more times. The pellets are pooled, and the final pellet is re-suspended in buffer, aliquoted and subsequently stored at −80° C.
(§6) The SPA Binding assay was performed in 96-well white opaque plates. Each well contained: 0.5 mg PVT-WGA SPA beads, MC1 receptor expressing membrane diluted to give approximately 10% specific tracer binding, 50.000 dpm ^125I-NDP-α-MSH and relevant dilutions of test compound. The final volume in each well was 200 μl. Assay buffer was 25 mM HEPES, pH 7.0, containing 1.5 mM CaCl2, 1 mM MgSO4, 0.21% (w/v) ovalbumin, 1 mM 1,10-Phenanthroline and one Complete™ Protease Inhibitor Cocktail Tablet per 100 ml. Plates were incubated overnight (22-24 hours) at room temperature before counting for 2 minutes per well, using a TopCount NXT scintillation counter. Displacement of radio ligand is measured as reduction in light emission from SPA beads, and IC50 values are calculated by nonlinear regression analysis of sigmoidal dose-response curves in GraphPad Prism (GraphPad Software, La Jolla, Calif., USA).

human MC4R [3] = target: T2, human MC4R (Homo sapiens, UniProt P32245); test: MC4 receptor binding assay (SPA, 125I-NDP-α-MSH); conditions: displacement of 125I-NDP-α-MSH, membranes from BHK cells stably expressing the human MC4 receptor, read-out: MC4R binding IC50
T2 construct: expressed in transfected cells
Procedure: In Vitro ^125I-NDP-α-MSH Binding to Recombinant BHK Cells Stably Expressing the Human MC4 Receptor (SPA Binding Assay).
In order to assess the binding affinity of the selected compounds for the human MC4R, competitive binding assays were performed with radiolabelled NDP-alpha MSH (^125I-NDP-α-MSH) and membranes from BHK cells stably expressing the human MC4 receptor.
as §5
as §6, with “MC4” for “MC1”

human MC4R [4] = target: T2, human MC4R; test: Functional human melanocortin receptor 4 assay (cAMP, HTRF); type: cell-based; conditions: cAMP induction, BHK cells expressing the human MC4 receptor, 30 min, 25° C.
Procedure: as §1, §2, §3, §4

T2 sequence (P32245 whole entry): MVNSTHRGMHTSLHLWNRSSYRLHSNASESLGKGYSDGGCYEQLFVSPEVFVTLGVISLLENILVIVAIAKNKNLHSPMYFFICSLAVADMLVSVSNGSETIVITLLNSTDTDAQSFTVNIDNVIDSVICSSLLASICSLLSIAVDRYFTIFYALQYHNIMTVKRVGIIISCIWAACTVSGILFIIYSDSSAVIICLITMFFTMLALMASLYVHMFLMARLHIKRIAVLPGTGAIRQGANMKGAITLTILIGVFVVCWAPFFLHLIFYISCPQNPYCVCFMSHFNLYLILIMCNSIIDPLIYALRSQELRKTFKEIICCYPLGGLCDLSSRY
T1 sequence (Q01726 whole entry): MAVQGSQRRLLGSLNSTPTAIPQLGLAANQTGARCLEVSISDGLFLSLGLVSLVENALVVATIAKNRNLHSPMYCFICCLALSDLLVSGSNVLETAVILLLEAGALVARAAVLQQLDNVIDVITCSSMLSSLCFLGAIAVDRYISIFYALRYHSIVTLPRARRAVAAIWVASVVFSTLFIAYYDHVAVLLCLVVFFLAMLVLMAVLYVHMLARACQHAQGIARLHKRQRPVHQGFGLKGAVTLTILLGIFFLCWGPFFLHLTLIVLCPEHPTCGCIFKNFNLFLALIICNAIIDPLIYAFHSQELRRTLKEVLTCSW

| EC50 (human MC1R [1]) [nM] | IC50 (human MC1R [2]) [nM] | IC50 (human MC4R [3]) [nM] | EC50 (human MC4R [4]) [nM] | SMILES |
| --- | --- | --- | --- | --- |
| 172 |  |  |  | CCCC[C@H](NC(=O)[C@H](CCC(=O)O)NC(=O)[C@@H](CCCNC(=N)N)NC(=O)[C@@H]1CCCN1C(=O)[C@@H]1CCCN1C(=O)[C@@H]1CSSC[C@H](NC(=O)[C@H](CCCNC(=N)N)NC(C)=O)C(=O)N2CCC[C@H]2C(=O)N[C@@H](Cc2c[nH]cn2)C(=O)N[C@H](Cc2ccccc2)C(=O)N[C@@H](Cc2c[nH]cn2)C(=O)N[C@@H](Cc2c[nH]c3ccccc23)C(=O)N1)C(=O)N[C@H](CCCNC(N)N)C(=O)N[C@H](CCCNC(=N)N)C(N)=O [Chem. 5, Ac-Arg-c[Cys-Pro-His-D- Phe-His-Trp-Cys]-Pro- Pro-D-Arg-Glu-Nle-D- Arg-D-Arg-NH2] (Ac-RCPH[dF]HWCPP[dR]E[Nle][X1][dR]-NH2; disulfide 2-8) |
| 126 | 44.1 | 0.35 | 0.32 | CCCC[C@H](NC(=O)[C@H](CCC(=O)O)NC(=O)[C@@H](CCCNC(=N)N)NC(=O)[C@@H]1CCCN1C(=O)[C@@H]1CCCN1C(=O)[C@@H]1CSSC[C@H](NC(=O)[C@H](CCCNC(=N)N)NC(C)=O)C(=O)N2CCC[C@H]2C(=O)N[C@@H](Cc2c[nH]cn2)C(=O)N[C@H](Cc2ccccc2)C(=O)N[C@@H](Cc2c[nH]cn2)C(=O)N[C@@H](Cc2c[nH]c3ccccc23)C(=O)N1)C(=O)N[C@H](CCCNC(N)N)C(=O)N[C@H](CCCNC(=N)N)C(N)=O [Chem. 6, Ac-D-Arg-c[Cys-Pro-His- D-Phe-His-Trp-Cys]-Pro- Pro-D-Arg-Glu-Nle-D- Arg-D-Arg-NH2] (Ac-RCPH[dF]HWCPP[dR]E[Nle][X1][dR]-NH2; disulfide 2-8) |
|  | 172 |  |  | CCCC[C@H](NC(=O)[C@H](CCC(=O)O)NC(=O)[C@@H](CCCNC(=N)N)NC(=O)[C@@H]1CCCN1C(=O)[C@@H]1CCCN1C(=O)[C@@H]1CSSC[C@H](NC(C)=O)C(=O)N2CCC[C@H]2C(=O)N[C@@H](Cc2c[nH]cn2)C(=O)N[C@H](Cc2ccc(Cl)cc2)C(=O)N[C@@H](Cc2c[nH]cn2)C(=O)N[C@@H](Cc2c[nH]c3ccccc23)C(=O)N1)C(=O)N[C@H](CCCNCN)C(=O)N[C@H](CCCNC(=N)N)C(N)=O [Chem. 10, Ac-c[Cys-Pro-His-D-Cl- Phe-His-Trp-Cys]-Pro- Pro-D-Arg-Glu-Nle-D- Arg-D-Arg-NH2] (Ac-CPH[dPhe(4-Cl)]HWCPP[dR]E[Nle][X3][dR]-NH2; disulfide 1-7) |
|  |  | 0.88 |  | CCCC[C@H](NC(=O)[C@H](CCC(=O)O)NC(=O)[C@@H](CCCNC(=N)N)NC(=O)[C@@H]1CCCN1C(=O)[C@@H]1CCCN1C(=O)[C@@H]1CSSC[C@H](NC(C)=O)C(=O)N2CCC[C@H]2C(=O)N[C@@H](Cc2c[nH]cn2)C(=O)N[C@H](Cc2ccccc2)C(=O)N[C@@H](Cc2c[nH]cn2)C(=O)N[C@@H](Cc2c[nH]c3ccccc23)C(=O)N1)C(=O)N[C@@H](CCCNCN)C(=O)N[C@H](CCCNC(=N)N)C(N)=O [Chem. 15, Ac-c[Cys-Pro-His-D-Phe- His-Trp-Cys]-Pro-D- Arg-Glu-Nle-Arg-D-Arg- NH2] (Ac-CPH[dF]HWCPP[dR]E[Nle][X2][dR]-NH2; disulfide 1-7) |
|  | 138 | 0.27 | 0.16 | CCCC[C@H](NC(=O)[C@H](CCC(=O)O)NC(=O)[C@@H](CCCNC(=N)N)NC(=O)[C@@H]1CCCN1C(=O)[C@@H]1CCCN1C(=O)[C@@H]1CSSC[C@H](NC(C)=O)C(=O)N2CCC[C@H]2C(=O)N[C@@H](Cc2c[nH]cn2)C(=O)N[C@H](Cc2ccccc2)C(=O)N[C@@H](Cc2c[nH]cn2)C(=O)N[C@@H](Cc2c[nH]c3ccccc23)C(=O)N1)C(=O)N[C@H](CCCNC(=N)N)C(=O)N[C@H](CCCNC(=N)N)C(=O)N[C@H](CCCNC(=N)N)C(N)=O [Chem. 16, Ac-c[Cys-Pro-His-D-Phe- His-Trp-Cys]-Pro-Pro-D- Arg-Glu-Nle-D-Arg-D- Arg-D-Arg-NH2] (Ac-CPH[dF]HWCPP[dR]E[Nle][dR][dR][dR]-NH2; disulfide 1-7) |
| 179 | 69 | 0.39 | 0.19 | CC(=O)N[C@H](CCCNC(=N)N)C(=O)N[C@H]1CSSC[C@@H](C(=O)N2CCC[C@H]2C(=O)N2CCC[C@H]2C(=O)N[C@H](CCCNC(=N)N)C(=O)N[C@H](CCCNC(=N)N)C(N)=O)NC(=O)[C@H](Cc2c[nH]c3ccccc23)NC(=O)[C@H](Cc2c[nH]cn2)NC(=O)[C@@H](Cc2ccccc2)NC(=O)[C@H](Cc2c[nH]cn2)NC(=O)[C@@H]2CCCN2C1=O [Chem. 18, Ac-D-Arg-c[Cys-Pro-His- D-Phe-His-Trp-Cys]-Pro- Pro-D-Arg-D-Arg-NH2] (Ac-[dR]CPH[dF]HWCPP[dR][dR]-NH2; disulfide 2-8) |
